# Test results: patent US20050119253A1, “Method of treating mental disorders using of D4 and 5-HT2A antagonists, inverse agonists or partial agonists” (priority 2003, published 2005)
# Columns and labels:
# Type in all cases: binding
# D1 = D1 (Homo sapiens, UniProt P21728); assay: pKi of test compounds, D1 receptor
# D2 = D2 (Homo sapiens, UniProt P14416); assay: pKi of test compounds, D2 receptor; details: read-out: pKi D2 (converted)
# D3 = D3 (Homo sapiens, UniProt P35462); assay: pKi of test compounds, D3 receptor; details: for Ki: read-out: pKi D3 (converted)
# 5HT1A = target: T1, 5HT1A (Homo sapiens, UniProt P08908); assay: pKi of test compounds, 5HT1A receptor
# T1 sequence (P08908 1-422): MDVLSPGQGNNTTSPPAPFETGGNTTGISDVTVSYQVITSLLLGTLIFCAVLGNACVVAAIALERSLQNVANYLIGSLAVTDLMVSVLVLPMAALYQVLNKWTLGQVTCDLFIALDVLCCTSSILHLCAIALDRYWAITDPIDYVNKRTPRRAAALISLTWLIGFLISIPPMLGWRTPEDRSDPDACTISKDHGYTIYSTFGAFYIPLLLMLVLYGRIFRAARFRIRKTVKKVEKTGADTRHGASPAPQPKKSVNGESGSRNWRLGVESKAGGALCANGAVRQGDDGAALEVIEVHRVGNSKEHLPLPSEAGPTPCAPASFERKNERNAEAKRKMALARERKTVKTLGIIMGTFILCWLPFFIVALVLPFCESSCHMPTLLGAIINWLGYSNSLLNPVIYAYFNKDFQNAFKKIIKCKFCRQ
# 5-HT2A receptor = 5-HT2A receptor (Homo sapiens, UniProt P28223); assay: pKi of test compounds, 5-HT2A receptor
# 5HT2C = target: T2, 5HT2C (Homo sapiens, UniProt P28335); assay: pKi of test compounds, 5HT2C receptor
# T2 sequence (P28335 33-458): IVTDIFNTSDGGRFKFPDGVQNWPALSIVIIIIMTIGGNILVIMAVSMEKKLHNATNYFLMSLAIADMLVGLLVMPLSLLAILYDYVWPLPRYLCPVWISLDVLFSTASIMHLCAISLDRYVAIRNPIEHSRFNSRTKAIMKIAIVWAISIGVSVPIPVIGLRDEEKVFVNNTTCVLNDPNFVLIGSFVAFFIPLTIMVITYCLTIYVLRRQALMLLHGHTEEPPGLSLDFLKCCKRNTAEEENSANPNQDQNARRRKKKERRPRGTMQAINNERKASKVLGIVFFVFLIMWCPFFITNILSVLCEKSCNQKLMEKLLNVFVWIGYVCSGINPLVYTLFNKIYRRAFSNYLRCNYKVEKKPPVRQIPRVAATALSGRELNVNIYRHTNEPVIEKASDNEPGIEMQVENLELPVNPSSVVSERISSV
# Alpha1A = target: T3, Alpha1A (Homo sapiens, UniProt P35348); assay: pKi of test compounds, adrenergic receptor Alpha1A
# T3 sequence (P35348 1-466): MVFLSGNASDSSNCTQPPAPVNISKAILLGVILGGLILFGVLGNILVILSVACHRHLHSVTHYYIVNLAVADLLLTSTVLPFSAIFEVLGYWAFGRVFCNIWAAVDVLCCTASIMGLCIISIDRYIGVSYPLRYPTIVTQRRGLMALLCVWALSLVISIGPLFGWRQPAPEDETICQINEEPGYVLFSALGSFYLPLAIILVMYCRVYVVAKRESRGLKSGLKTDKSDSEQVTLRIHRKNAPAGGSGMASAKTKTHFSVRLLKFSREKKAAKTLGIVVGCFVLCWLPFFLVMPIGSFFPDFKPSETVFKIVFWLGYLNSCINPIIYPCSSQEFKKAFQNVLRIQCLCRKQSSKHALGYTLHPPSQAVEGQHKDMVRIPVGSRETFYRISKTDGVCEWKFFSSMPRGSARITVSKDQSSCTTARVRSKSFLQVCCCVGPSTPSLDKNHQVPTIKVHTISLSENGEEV
# Alpha2A = target: T4, Alpha2A (Homo sapiens, UniProt P08913); assay: pKi of test compounds, adrenergic receptor Alpha2A
# T4 sequence (P08913 1-465): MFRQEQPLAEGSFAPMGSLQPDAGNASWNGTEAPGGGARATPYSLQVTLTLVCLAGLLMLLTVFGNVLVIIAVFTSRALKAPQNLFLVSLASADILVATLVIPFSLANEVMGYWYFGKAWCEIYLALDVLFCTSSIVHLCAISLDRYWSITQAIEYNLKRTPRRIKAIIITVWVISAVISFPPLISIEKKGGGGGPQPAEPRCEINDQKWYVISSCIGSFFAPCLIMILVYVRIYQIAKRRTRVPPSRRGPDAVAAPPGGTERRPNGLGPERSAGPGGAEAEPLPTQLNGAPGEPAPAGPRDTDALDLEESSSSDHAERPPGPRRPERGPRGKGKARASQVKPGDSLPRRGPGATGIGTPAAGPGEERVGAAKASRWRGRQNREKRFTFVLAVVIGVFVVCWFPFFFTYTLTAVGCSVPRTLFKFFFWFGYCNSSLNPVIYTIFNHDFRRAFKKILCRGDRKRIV
# 5HT1F = 5HT1F (Homo sapiens, UniProt P30939); assay: pKi of test compounds, 5HT1F receptor
# Alpha2B = Alpha2B (Homo sapiens, UniProt P18089); assay: pKi of test compounds, adrenergic receptor Alpha2B
# Alpha2C = target: T5, Alpha2C (Homo sapiens, UniProt P18825); assay: pKi of test compounds, adrenergic receptor Alpha2C
# T5 sequence (P18825 1-462): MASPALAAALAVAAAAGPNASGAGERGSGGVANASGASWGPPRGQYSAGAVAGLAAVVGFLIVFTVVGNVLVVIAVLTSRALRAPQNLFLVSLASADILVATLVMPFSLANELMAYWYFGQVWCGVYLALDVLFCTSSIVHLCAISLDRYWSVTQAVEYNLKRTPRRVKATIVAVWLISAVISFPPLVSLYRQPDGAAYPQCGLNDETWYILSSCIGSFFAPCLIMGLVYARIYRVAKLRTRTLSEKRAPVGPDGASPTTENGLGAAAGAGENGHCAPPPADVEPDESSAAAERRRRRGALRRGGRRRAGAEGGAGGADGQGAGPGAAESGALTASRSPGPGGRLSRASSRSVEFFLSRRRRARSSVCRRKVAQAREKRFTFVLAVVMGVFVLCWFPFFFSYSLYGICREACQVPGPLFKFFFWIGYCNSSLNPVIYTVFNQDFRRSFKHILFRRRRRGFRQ
# D4 receptor = target: T6, D4 receptor (Homo sapiens, UniProt P21917); assay: pKi of test compounds, D4 receptor; details: D4; read-out: pKi D4 (converted)
# T6 sequence (P21917 1-419): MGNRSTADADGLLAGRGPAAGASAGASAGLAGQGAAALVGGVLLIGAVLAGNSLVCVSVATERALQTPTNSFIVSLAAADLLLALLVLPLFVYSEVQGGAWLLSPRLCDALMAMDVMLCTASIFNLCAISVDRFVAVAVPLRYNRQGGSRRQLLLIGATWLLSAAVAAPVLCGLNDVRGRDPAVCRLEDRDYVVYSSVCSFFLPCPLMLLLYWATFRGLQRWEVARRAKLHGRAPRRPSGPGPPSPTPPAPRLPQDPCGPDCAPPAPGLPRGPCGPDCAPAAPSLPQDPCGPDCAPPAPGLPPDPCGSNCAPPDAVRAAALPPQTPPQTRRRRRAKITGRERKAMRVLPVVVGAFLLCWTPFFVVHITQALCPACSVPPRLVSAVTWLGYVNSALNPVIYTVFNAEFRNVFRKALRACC
# 5HT1B = 5HT1B (Homo sapiens, UniProt P28222); assay: pKi of test compounds, 5HT1B receptor
# 5HT1D = 5HT1D (Homo sapiens, UniProt P28221); assay: pKi of test compounds, 5HT1D receptor; details: for Ki: read-out: pKi 5HT1D (converted)
# 5HT1E = 5HT1E (Homo sapiens, UniProt P28566); assay: pKi of test compounds, 5HT1E receptor
# 5HT2B = 5HT2B (Homo sapiens, UniProt P41595); assay: pKi of test compounds, 5HT2B receptor
# 5HT6rat = 5HT6rat (Rattus norvegicus, UniProt P31388); assay: pKi of test compounds, 5HT6 receptor; details: rat; read-out: pKi 5HT6rat (converted)
# 5HT7rat = 5HT7rat (Rattus norvegicus, UniProt P32305); assay: pKi of test compounds, 5HT7 receptor
# Beta1 = Beta1 (Homo sapiens, UniProt P08588); assay: pKi of test compounds, adrenergic receptor Beta1
# Beta2 = Beta2 (Homo sapiens, UniProt P07550); assay: pKi of test compounds, adrenergic receptor Beta2
# Sequence of Beta2 (P07550 whole entry): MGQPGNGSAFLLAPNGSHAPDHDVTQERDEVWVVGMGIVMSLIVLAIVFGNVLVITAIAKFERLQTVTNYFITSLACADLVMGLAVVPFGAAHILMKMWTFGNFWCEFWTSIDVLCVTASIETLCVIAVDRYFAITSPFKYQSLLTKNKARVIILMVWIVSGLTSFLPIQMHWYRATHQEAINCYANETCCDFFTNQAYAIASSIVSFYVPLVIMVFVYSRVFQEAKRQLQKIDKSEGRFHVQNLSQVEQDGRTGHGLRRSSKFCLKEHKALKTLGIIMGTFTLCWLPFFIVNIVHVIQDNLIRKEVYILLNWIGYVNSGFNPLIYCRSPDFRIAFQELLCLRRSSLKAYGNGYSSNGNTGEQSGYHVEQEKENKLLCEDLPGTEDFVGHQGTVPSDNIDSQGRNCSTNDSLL
# Sequence of 5-HT2A receptor (P28223 whole entry): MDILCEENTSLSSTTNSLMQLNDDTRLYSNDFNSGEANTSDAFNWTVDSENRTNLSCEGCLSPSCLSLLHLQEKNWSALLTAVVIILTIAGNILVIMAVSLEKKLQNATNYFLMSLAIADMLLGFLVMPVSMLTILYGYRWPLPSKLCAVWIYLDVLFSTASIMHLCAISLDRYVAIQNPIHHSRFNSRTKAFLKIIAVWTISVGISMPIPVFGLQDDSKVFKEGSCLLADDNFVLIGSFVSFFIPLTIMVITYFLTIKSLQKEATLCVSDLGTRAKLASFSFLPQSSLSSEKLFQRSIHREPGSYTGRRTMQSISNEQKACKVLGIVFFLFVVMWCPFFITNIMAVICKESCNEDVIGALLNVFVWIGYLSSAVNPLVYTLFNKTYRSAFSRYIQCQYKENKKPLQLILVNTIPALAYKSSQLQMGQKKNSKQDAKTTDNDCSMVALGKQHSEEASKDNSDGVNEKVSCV
# Sequence of 5HT1D (P28221 whole entry, species assumed): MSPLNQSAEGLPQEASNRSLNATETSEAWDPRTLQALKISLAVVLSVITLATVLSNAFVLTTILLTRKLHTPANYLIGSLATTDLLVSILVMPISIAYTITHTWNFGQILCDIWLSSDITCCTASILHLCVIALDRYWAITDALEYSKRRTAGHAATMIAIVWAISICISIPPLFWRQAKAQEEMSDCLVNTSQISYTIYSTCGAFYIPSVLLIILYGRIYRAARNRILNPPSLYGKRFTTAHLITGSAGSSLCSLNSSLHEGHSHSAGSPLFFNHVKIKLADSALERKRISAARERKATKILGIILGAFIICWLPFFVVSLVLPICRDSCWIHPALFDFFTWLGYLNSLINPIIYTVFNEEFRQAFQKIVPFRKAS
# Sequence of 5HT1B (P28222 whole entry, species assumed): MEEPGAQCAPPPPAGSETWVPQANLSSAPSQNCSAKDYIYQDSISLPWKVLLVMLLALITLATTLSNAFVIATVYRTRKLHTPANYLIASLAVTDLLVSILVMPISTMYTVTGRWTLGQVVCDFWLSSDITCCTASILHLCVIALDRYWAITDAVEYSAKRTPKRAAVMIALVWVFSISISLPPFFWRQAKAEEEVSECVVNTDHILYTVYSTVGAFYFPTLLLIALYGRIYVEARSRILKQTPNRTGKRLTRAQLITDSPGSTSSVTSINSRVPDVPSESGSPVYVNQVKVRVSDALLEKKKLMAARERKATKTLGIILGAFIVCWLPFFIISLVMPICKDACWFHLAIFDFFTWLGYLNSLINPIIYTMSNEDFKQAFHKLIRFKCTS
# Sequence of D1 (P21728 whole entry): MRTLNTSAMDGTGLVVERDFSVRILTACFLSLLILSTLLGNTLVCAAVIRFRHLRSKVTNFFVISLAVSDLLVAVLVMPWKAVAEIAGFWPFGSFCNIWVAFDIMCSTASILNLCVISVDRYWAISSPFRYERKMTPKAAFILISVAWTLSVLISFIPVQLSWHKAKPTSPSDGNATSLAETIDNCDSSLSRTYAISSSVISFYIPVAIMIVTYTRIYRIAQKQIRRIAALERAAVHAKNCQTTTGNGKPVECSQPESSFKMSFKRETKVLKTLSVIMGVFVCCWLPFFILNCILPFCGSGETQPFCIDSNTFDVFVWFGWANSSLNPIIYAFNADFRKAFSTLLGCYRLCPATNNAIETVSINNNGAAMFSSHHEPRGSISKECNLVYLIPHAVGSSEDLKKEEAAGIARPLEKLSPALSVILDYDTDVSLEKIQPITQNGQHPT
# Sequence of D3 (P35462 whole entry): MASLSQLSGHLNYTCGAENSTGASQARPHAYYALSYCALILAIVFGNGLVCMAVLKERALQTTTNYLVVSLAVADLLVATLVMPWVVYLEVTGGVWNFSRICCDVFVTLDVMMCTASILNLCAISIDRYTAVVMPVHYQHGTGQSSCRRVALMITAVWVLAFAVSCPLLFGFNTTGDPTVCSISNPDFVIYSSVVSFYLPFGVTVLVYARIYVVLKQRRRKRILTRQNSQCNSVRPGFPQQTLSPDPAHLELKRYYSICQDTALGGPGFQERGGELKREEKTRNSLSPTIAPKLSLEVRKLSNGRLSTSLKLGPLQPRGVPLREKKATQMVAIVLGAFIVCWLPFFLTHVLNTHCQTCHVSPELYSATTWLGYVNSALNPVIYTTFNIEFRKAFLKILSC
# Sequence of D2 (P14416 whole entry): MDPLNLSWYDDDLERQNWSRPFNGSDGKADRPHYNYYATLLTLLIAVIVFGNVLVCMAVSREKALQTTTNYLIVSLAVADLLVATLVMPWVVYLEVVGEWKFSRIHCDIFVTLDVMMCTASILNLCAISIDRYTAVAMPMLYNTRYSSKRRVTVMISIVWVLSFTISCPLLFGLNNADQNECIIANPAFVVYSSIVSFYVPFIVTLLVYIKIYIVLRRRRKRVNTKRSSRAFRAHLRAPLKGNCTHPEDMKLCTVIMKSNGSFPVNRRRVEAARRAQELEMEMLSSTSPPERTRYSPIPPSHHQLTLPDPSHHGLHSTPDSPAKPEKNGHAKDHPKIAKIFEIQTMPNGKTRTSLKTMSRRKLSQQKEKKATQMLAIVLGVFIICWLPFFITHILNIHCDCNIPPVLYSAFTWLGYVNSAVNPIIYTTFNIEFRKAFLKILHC
# Sequence of 5HT1E (P28566 whole entry, species assumed): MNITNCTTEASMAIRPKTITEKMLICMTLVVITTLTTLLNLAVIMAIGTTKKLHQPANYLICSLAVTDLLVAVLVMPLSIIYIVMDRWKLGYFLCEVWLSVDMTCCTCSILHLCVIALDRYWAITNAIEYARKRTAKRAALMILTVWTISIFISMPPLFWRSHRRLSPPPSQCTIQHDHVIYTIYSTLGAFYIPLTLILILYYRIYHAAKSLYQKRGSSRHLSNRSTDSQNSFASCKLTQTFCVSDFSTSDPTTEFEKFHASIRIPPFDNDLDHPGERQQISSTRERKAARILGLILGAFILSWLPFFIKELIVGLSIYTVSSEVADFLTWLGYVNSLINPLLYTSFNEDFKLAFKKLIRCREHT
# Sequence of Alpha2B (P18089 whole entry): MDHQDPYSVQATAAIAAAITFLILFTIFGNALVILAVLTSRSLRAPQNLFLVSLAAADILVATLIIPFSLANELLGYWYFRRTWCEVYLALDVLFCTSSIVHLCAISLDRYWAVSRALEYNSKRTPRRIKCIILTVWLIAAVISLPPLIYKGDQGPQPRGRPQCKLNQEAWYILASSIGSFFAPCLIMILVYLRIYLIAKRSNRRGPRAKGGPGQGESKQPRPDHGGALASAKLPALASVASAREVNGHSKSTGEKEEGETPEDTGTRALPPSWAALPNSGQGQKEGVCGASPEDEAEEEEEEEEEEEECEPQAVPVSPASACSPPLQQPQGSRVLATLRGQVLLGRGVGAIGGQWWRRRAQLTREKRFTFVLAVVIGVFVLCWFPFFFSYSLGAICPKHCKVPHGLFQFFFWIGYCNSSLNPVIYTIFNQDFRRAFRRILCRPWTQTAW
# Sequence of 5HT2B (P41595 whole entry, species assumed): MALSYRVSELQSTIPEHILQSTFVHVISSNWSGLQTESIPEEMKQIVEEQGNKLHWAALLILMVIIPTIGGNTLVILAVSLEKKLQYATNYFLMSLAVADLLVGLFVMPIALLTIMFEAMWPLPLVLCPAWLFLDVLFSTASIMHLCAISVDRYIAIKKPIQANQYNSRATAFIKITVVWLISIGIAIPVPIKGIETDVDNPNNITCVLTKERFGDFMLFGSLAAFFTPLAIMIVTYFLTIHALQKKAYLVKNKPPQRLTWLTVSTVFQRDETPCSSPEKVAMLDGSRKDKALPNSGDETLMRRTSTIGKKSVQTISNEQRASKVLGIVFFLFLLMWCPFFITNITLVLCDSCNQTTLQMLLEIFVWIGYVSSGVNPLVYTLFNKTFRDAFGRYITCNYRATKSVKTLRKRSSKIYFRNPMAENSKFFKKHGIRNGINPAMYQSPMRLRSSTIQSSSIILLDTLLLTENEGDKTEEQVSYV
# Sequence of 5HT7rat (P32305 whole entry): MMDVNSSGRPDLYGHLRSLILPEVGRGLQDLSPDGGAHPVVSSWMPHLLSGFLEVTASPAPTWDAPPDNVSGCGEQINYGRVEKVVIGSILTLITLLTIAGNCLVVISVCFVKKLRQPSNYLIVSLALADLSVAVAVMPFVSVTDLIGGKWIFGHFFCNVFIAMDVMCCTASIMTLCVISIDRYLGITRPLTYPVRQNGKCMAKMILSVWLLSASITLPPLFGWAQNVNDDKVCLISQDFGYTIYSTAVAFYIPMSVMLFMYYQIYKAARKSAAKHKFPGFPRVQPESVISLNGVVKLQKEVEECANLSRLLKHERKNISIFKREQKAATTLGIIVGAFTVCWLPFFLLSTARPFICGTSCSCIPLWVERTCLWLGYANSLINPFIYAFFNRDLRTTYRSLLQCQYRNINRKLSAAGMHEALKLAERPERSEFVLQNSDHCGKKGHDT
Ki (D1),Ki (D2),Ki (D3),Ki (5HT1A),Ki (5-HT2A receptor),Ki (5HT2C),Ki (Alpha1A),Ki (Alpha2A),SMILES,Ki (D4 receptor),further results
100 to 1000 nM,100 to 1000 nM,100 to 1000 nM,> 1000 nM,1 to 10 nM,> 1000 nM,10 to 100 nM,> 1000 nM,CCNC(=O)N1CCN(CCCC(c2ccc(F)cc2)c2ccc(F)cc2)CC1 [Amperozide],–,–
–,–,–,–,–,–,–,–,CN1CCN(C2=Nc3cc(Cl)ccc3Nc3ccccc32)CC1 [Clozapine],–,Ki (5HT1F): 100 to 1000 nM
–,–,–,100 to 1000 nM,–,–,100 to 1000 nM,1 to 10 nM,Fc1cccc2c1O[C@H]1CNC[C@@H]1O2 [Fluparoxan],–,Ki (Alpha2B): 1 to 10 nM; Ki (Alpha2C): 1 to 10 nM
–,–,–,–,–,–,–,–,OC1(c2ccc(Cl)cc2)CCN(Cc2c[nH]c3ccccc23)CC1 [L741626],–,pKi D3 (D3): 7-8; pKi 5HT1B (5HT1B): <6; pKi 5HT1D (5HT1D): <6; pKi 5HT2B (5HT2B): 6-7; pKi Alpha2A (Alpha2A): <6
10 to 100 nM,< 1 nM,1 to 10 nM,10 to 100 nM,< 1 nM,10 to 100 nM,< 1 nM,–,Cc1nc2c(C)cccn2c(=O)c1CCN1CCC(c2noc3cc(F)ccc23)CC1 [Ocaperidone],1 to 10 nM,–
> 1000 nM,–,1 to 10 nM,> 1000 nM,–,> 1000 nM,> 1000 nM,> 1000 nM,CCN1CCC[C@H]1CNC(=O)c1c(O)c(Cl)cc(Cl)c1OC [Raciopride],–,–

SMILES,Ki (D1),Ki (D2),Ki (D3),Ki (5HT1A),Ki (5-HT2A receptor),Ki (5HT2C),Ki (Alpha1A),Ki (Alpha2A),Ki (D4 receptor),further results
O=C1NCN(c2ccccc2)C12CCN(CCCC(c1ccc(F)cc1)c1ccc(F)cc1)CC2 [Fluspirilene],–,< 1 nM,–,–,–,–,–,–,1 to 10 nM,Ki (5HT1B): > 1000 nM; Ki (5HT1D): > 1000 nM; Ki (5HT1E): > 1000 nM
CN1CC2c3ccccc3Oc3ccc(Cl)cc3C2C1 (stereo not drawn) [ORG5222],1 to 10 nM,–,1 to 10 nM,1 to 10 nM,< 1 nM,< 1 nM,< 1 nM,1 to 10 nM,1 to 10 nM,Ki (5HT1B): 1 to 10 nM; Ki (5HT1D): 1 to 10 nM; Ki (5HT1E): 10 to 100 nM; Ki (5HT6rat): < 1 nM; Ki (5HT7rat): < 1 nM; Ki (Alpha2C): 10 to 100 nM; Ki (Beta1): > 1000 nM; Ki (Beta2): > 1000 nM
